# Legend:
# [1] = system: HL-60; experiment: Cytotoxicity, annexin V/7-AAD viability by flow cytometry, HL-60; assay type: cell-based, human; settings: HL-60, 48 hours, drug range tested 1.25-160 μM
# Experimental: In order to assess the structure-activity relationship of DHL and its derivatives, DHL and its derivatives were evaluated against eight human leukemia cell lines. Cell lines were cultured in Iscove's Modified Dulbecco's Medium (IMDM) supplemented with 10%˜20% fetal bovine serum (FBS) according to culture conditions indicated by ATCC and 1% penicillin/streptomycin (Pen/Strep) at 37° C. and 5% CO2. The cells were seeded into 96-well plates and kept at a concentration of 0.5 million cells per mL. The samples were treated with DHL, Leucodine, DHL-Morpholine, DHL-Proline, DHL-Piperidine, and PTL at varying concentrations in triplicates. Cell viability was determined after incubating for 48 hours. The cells were stained with annexin V-fluorescein isothiocyanate or phycoeritrine (FITC/PE) and 7-aminoactinomycin (7-AAD) to detect phosphatidylserine exposition and cell permeability, respectively. At least 50,000 events were recorded per condition on either an LSR-II or LSR-Fortessa flow cytometer (BD Biosciences). Data analysis was conducted using FlowJo 9.6 software for Mac OS X (TreeStar). Cells that were negative for annexin V and 7-AAD were scored as viable.
# [2] = system: NCI-H460; experiment: Single dose tumor cell growth inhibition, Non-Small Cell Lung Cancer NCI-H460; assay type: cell-based; settings: NCI-H460, single dose 10 μM
# Source text: DHL is cytotoxic to various leukemia, colon cancer, CNS cancer and prostate cancer cell lines.
compound,measurement,setting,value
"C=C1C(=O)O[C@@H]2[C@H]3C(C)=CC(=O)C3=C(C)CC[C@@H]12 [DHL, dehydroleucodine]",LD50,[1],14.13 µM
same,Percent inhibition,[2],0.0%

# Source: patent publication US11059800B2, “Dehydroleucodine derivatives and uses thereof” (Bioventures, LLC, priority 2013, dated 2021)
